Consider 29 compounds from US4342870A, “Novel 3-(1-piperidinylalkyl)-4H-pyrido[1,2-a]pyrimidin-4-one derivatives” (Janssen Pharmaceutica N.V., priority 1980, dated 1982).

Test [1] deals with effect of serotonin on the caudal artery of the rat. The experiment in a line: Antagonistic activity on the effect of serotonin on the caudal artery of the rat (Test 1). Particulars: minimal concentration reducing amplitude of serotonin (40 ng/ml) contraction to at least 50% of normal; rat caudal artery strips; 5 min. As to the method: Test 1: Anta gonistic activity on the effect of serotonin on the caudal artery of the rat.
Caudal arteries from fasted male rats (210-235 g) are used in the test. Two helical strips having a length of 5-6 cm and a width of 2 mm are obtained from each artery and mounted vertically in a 100 ml organ bath containing an oxygenated Krebs-Henseleit solution. Submaximal contractions of the arterial strips are produced by adding single doses of serotonin (40 ng/ml) to the organ bath for 2 minutes with each time an interval of 10 minutes. The amplitude of the contraction is measured before and 5 minutes after adding the drug. After washing out, the agonist is added again three times in order to see whether the contraction is restored and normalized. […] In this connection the ED50 -values are the minimal concentrations of the concerned drugs which reduce the amplitude of the contraction to at least 50% of its normal value.

Test [2] relates to gastric lesions induced by compound 48/80. The experiment in a line: Gastric lesion test: lesions induced by compound 48/80 (Test 2). Type of test: in vivo, rat (male, Wistar inbred strain). Particulars: Rattus norvegicus, po. Here is the method:
Test 2: Effects in gastric lesion tests
The shock, followed by dead, can be avoided if the rats are pretreated with a classical H 1 antagonist.
Male rats of a Wistar inbred strain, weighing 200-250 g, are starved overnight, water being available ad libitum. The test compounds are administered orally as a solution or as a suspension in aqueous medium. A control rat and a "blank" rat […]. One hour later 5-[4-(diphenylmethyl)-1-piperazinylmethyl]-1-methyl-1H-benzimidazole-2-methanol is administered subcutaneously to all rats at the dose of 2.5 mg/kg. […] Four hours after the intravenous injection of compound 48/80, the rats are decapitated and the stomachs are removed. Subsequently the stomachs are inspected for distension and contents (blood, fluid, food) and thoroughly rinsed. The macroscopic lesions are secured from 0 to +++, 0 corresponding to complete absence of visible lesions and the highest score corresponding to reddish rough patches covering more than half the glandular area.

For test [3], the system named is rats injected with compound 48/80. The following applies: known serotonin antagonists; cited from earlier work.

Some results are limits rather than exact numbers.

For the compound `Cc1ccccc1C(=O)C1CCN(CCc2c(C)nc3ccccn3c2=O)CC1` [H H CH2CH2 H C6 H4.2CH3], the “Caudal Artery ED50” value in test [1] was found to be 1.25 ng/mL. A word on the ED50: it is the dose that gives a 50% effect, or the effect in half of the subjects. Higher therefore signals weaker potency. Take `Cc1nc2cccc(C)n2c(=O)c1CCN1CCC(c2c[nH]c3ccccc23)CC1` [H 6-CH3, 3-[2-[4-(1H-indol-3-yl)-1-piperidinyl]ethyl]-2,6-dimethyl-4H-pyrido[1,2-a]pyrimidin-4-one]: the “Caudal Artery ED50” value in test [1] stood at 0.08 ng/mL. This compound gave an ED50 in test [2] of 0.16 mg/kg.

For the compound `Cc1ccn2c(=O)c(CCN3CCC(c4c[nH]c5ccccc45)CC3)c(C)nc2c1` [H 8-CH3, 3-[2-[4-(1H-indol-3-yl)-1-piperidinyl]ethyl]-2,8-dimethyl-4H-pyrido[1,2-a]pyrimidin-4-one], the “Caudal Artery ED50” value in test [1] came out at 0.31 ng/mL. This compound registered an ED50 in test [2] of 0.04 mg/kg. The matching figures for `Cc1nc2cccc(C)n2c(=O)c1CCN1CCC(C(=O)c2ccc(F)cc2)CC1` [H 6-CH3 CH2CH2 H C6 H4 .4F]: below 0.63 ng/mL and 2.5 mg/kg. Consider `NC(=O)C1(N2CCCCC2)CCN(CCCC(=O)c2ccc(F)cc2)CC1` [pipamperone], for which, in test [3], the “prevention of cyanosis of ears and extremities, of lesions in the glandular area of the stomach and of abnormal gastric distension” value (“prevention” for short) is “prevent completely”. Take `CN1CCC(=C2c3ccccc3CCc3sccc32)CC1` [pizotifen]: in test [3], the “prevention” value is “prevent completely”. Consider `O=C(CCCN1CCC2(CC1)C(=O)NCN2c1ccccc1)c1ccc(F)cc1` [spiperone], for which, in test [3], the “prevention” value is reported as “prevent completely”. As for `CN1C[C@H](CNC(=O)OCc2ccccc2)C[C@@H]2c3cccc4c3c(cn4C)C[C@H]21` [metergoline], the “prevention” value in test [3] is on record as “prevent completely”. For the compound `Cc1ccc2nc(C)c(CCN3CCC(c4c[nH]c5ccccc45)CC3)c(=O)n2c1` [H 7-CH3, 3-[2-[4-(1H-indol-3-yl)-1-piperidinyl]ethyl]-2,7-dimethyl-4H-pyrido-[1,2-a]pyrimidin-4-one], the “Caudal Artery ED50” value in test [1] is 0.31 ng/mL. Further, in test [2], the 50% effect level (ED50) was put at a dose of 0.63 mg/kg.

Consider `Cc1nc2ccccn2c(=O)c1CCN1CCC(O)(C(=O)c2ccc(F)cc2)CC1` [H H CH2CH2 OH C6 H4 .4F], for which, in test [1], the “Caudal Artery ED50” value was 0.31 ng/mL. In addition, in test [2], it took a dose of 2.5 mg/kg to reach the 50% effect level (ED50). On the same counts, the results for `Cc1nc2ccc(Br)cn2c(=O)c1CCN1CCC(c2c[nH]c3ccccc23)CC1` [H 7-Br, 7-bromo-3-[2-[4-(1H-indol-3-yl)-1-piperidinyl]ethyl]-2-methyl-4H-pyrido[1,2-a]pyrimidin-4-one] are 0.31 ng/mL and 1.25 mg/kg. Take `CN1CCC(=C2c3ccccc3C=Cc3ccccc32)CC1` [cyproheptadine]: the “prevention” value in test [3] was “prevent completely”. Regarding `Cc1nc2ccc(Cl)cn2c(=O)c1CCN1CCC(c2c[nH]c3ccccc23)CC1` [H 7-Cl, 7-chloro-3-[2-[4-(1H-indol-3-yl)-1-piperidinyl]ethyl]-2-methyl-4H-pyrido[1,2-a]pyrimidin-4-one], the “Caudal Artery ED50” value in test [1] was found to be 0.63 ng/mL. For the same compound, in test [2], the ED50 turned out to be 0.63 mg/kg.

With `Cc1nc2ccccn2c(=O)c1CCN1CCC(c2c[nH]c3ccccc23)CC1` [H H, 3-[2-[4-(1H-indol-3-yl)-1-piperidinyl]ethyl]-2-methyl-4H-pyrido[1,2-a]pyrimidin-4-one], the “Caudal Artery ED50” value in test [1] stood at 0.14 ng/mL. Also, the ED50 in test [2] was found to be 0.08 mg/kg. As to `CN1CCN2c3ccccc3Cc3ccccc3C2C1` (stereo not shown) [mianserin], the “prevention” value in test [3] is “prevent completely”.

Regarding `Cc1ccc2nc(C)c(CCN3CCC(C(=O)c4ccc(F)cc4)CC3)c(=O)n2c1` [H 7-CH3 CH2CH2 H C6 H4.4F], the “Caudal Artery ED50” value in test [1] came out at 0.31 ng/mL. Moreover, in test [2], the ED50 is 0.02 mg/kg. In the case of `CC[C@@H](CO)NC(=O)[C@@H]1C=C2c3cccc4c3c(cn4C)C[C@H]2N(C)C1` [methysergide], in test [3], the “prevention” value is listed as “prevent completely”. In turn, `Cc1nc2ccccn2c(=O)c1CCN1CCC(CO)(C(=O)c2ccc(F)cc2)CC1.Cl.Cl.O` [H H CH2CH2 CH2 OH C6 H4 .4F, 3-[2-[4-(4-fluorobenzoyl)-4-(hydroxymethyl)-1-piperidinyl]ethyl]-2-methyl-4H-pyrido[1,2-a]pyrimidin-4-one dihydrochloride monohydrate] had an ED50 in test [2] below 0.63 mg/kg. Turning to `Cc1cc(C)n2c(=O)c(CCN3CCC(c4c[nH]c5ccccc45)CC3)c(C)nc2c1` [6-CH3 8-CH3, 3-[2-[4-(1H-indol-3-yl)-1-piperidinyl]ethyl]-2,6,8-trimethyl-4H-pyrido[1,2-a]pyrimidin-4-one], in test [1], the “Caudal Artery ED50” value was found to be 0.16 ng/mL. In addition, the 50% effective dose (ED50) in test [2] stood at 0.63 mg/kg.

In the case of `Cc1nc2ccc(Br)cn2c(=O)c1CCN1CCC(C(=O)c2ccc(F)cc2)CC1` [H 7-Br CH2CH2 H C6 H4 .4F], in test [1], the “Caudal Artery ED50” value is 0.31 ng/mL. In test [2], this compound came in with an ED50 below 0.63 mg/kg. For `Cc1nc2ccc(Cl)cn2c(=O)c1CCN1CCC(C(=O)c2ccc(F)cc2)CC1` [H 7-Cl CH2CH2 H C6 H4.4F], the “Caudal Artery ED50” value in test [1] worked out at 1.25 ng/mL. Also, the ED50 in test [2] is 0.01 mg/kg. Turning to `Cc1nc2ccccn2c(=O)c1CC(C)N1CCC(C(=O)c2ccc(F)cc2)CC1` (stereo not shown) [H H drawing 24 H C6 H4 .4F], the 50% effect level in test [2] (ED50) was put at a dose of 2.5 mg/kg.

Take `Cc1ccn2c(=O)c(CCN3CCC(C(=O)c4ccc(F)cc4)CC3)c(C)nc2c1` [H 8-CH3 CH2CH2 H C6 H4 .4F]: in test [1], the “Caudal Artery ED50” value is below 2.5 ng/mL. The same compound gave an ED50 in test [2] of 0.04 mg/kg. On the same counts, the results for `Cc1nc2ccccn2c(=O)c1CCN1CCC(C)(C(=O)c2ccc(F)cc2)CC1` [H H CH2CH2 CH3 C6 H 4 .4F] are 0.63 ng/mL and 0.16 mg/kg. For the compound `Cc1nc2ccccn2c(=O)c1CCN1CCC(C(=O)c2cccs2)CC1` [H H CH2CH2 H 2-thienyl], in test [1], the “Caudal Artery ED50” value turned out to be 1.3 ng/mL. Consider `CN(C)CCCSc1ccccc1NC(=O)/C=C/c1ccccc1` [cinanserin], for which the “prevention” value in test [3] is “prevent completely”. Consider `Cc1nc2ccccn2c(=O)c1CCN1CCC(C(=O)c2ccccc2)CC1` [H H CH2CH2 H C6 H5, 3-[2-(4-benzoyl-1-piperidinyl)ethyl]-2-methyl-4H-pyrido[1,2-a]pyrimidin-4-one], for which, in test [1], the “Caudal Artery ED50” value stood at 0.63 ng/mL. Also, the ED50 in test [2] worked out at 0.63 mg/kg.

`Cc1nc2ccccn2c(=O)c1CCN1CCC(C(=O)c2ccc(F)cc2)CC1` [H H CH2CH2 H C6 H4 .4F, 3-[2-[4-(4-fluorobenzoyl)-1-piperidinyl]ethyl]-2-methyl-4H-pyrido[1,2-a]pyrimidin-4-one]: in test [1], the “Caudal Artery ED50” value was 0.32 ng/mL. The compound further showed an ED50 in test [2] of 0.016 mg/kg. The matching figures for `Cc1cc(C)n2c(=O)c(CCN3CCC(C(=O)c4ccc(F)cc4)CC3)c(C)nc2c1` [6-CH3 8-CH3 CH2CH2 H C6 H4.4F]: 0.16 ng/mL and 0.02 mg/kg.
